Assay results taken from publication PMC7944940 (Dalton transactions (Cambridge, England : 2003), 2021).

Target: PAN endonuclease (Influenza A virus, UniProt C3W5S0)
Assay: FRET-based enzymatic assay of PAN endonuclease inhibition
Format: biochemical

Row | Compound | IC50 (read-out: IC50 (dark)) | enzymatic inhibition upon light irradiation
1 | [Cl][Ru][Cl].c1ccc(-c2ccccn2)nc1.c1ccc(-c2ccccn2)nc1 [Compound 2, Ru(2,2´-bipyridine)2(Cl)2] | > 100 µM | 
2 | [Ru(2,2´-bipyridine)2(pyridine)2][Cl]2 [Compound 9] |  | negligible
